Reference: PMC7933930, “Development of a small molecule that corrects misfolding and increases secretion of Z α1‐antitrypsin” (EMBO Molecular Medicine, 2021)

Key:
Z α1‐antitrypsin = Z α1‐antitrypsin (Homo sapiens, UniProt P01009, E366K); experiment: TR‐FRET immunoassay (2C1 antibody) of Z α1‐antitrypsin polymerisation, 37°C, 72 h; format: biochemical; parameters: purified from the plasma of Z α1‐antitrypsin homozygotes; from tissue; host or cells: human plasma of Z α1-antitrypsin homozygotes
Excerpt: Z α1‐antitrypsin is a conformationally dynamic molecule (Lomas et al, 1992; Knaupp et al, 2010) that represents a non‐classical target for drug discovery. A cell‐free assay approach to hit finding was undertaken so as not to miss compounds that bind α1‐antitrypsin and block polymerisation but lack the molecular properties to cross cell membranes. This comprised the following: (i) an encoded library technology (ELT) screen (Goodnow et al, 2017) of a library with a nominal diversity of 2 × 10^12 unique components to identify binders to Z α1‐antitrypsin and (ii) a high‐throughput screen (HTS) of the GSK compound collection (~ 1.7 million compounds) for small molecules that could block polymerisation of Z α1‐antitrypsin. […] In the HTS assay, polymerisation of purified Z α1‐antitrypsin was induced by incubation at 37°C for 72 h in the presence of test compounds, with end‐point quantification of polymers performed using the polymer‐specific monoclonal antibody, 2C1 (Miranda et al, 2010) in a TR‐FRET‐based immunoassay. […]
An antibody‐based time‐resolved fluorescence resonance energy transfer (TR‐FRET) assay was developed to monitor the polymerisation of 5 nM Z α1‐antitrypsin following incubation with varying concentrations of compounds at 37°C for 72 h. This assay used the 2C1 monoclonal antibody (1.25 nM) that is specific to pathological polymers of α1‐antitrypsin (Miranda et al, 2010), a polyclonal antibody (1/320 dilution) that binds to all forms of α1‐antitrypsin (Abcam product 9373), an anti‐mouse IgG (1.5 nM) labelled with fluorescence donor Eu‐W1024 (Perkin Elmer product AD0076) and an anti‐rabbit IgG (14.3 nM labelled with acceptor [APC]). […] The TR‐FRET signal was read on an Envision plate reader (PerkinElmer), by excitation of Europium at 337 nm and detection of emission at 665 and 620 nm.

Adrenergic α1B = Adrenergic α1B (Homo sapiens, UniProt P35368); experiment: Off‐target panel: Adrenergic α1B (DRX); format: cell-based
Method: (§1) GSK716 selectivity and PK properties were profiled in order to investigate the suitability of GSK716 for progression into in vivo studies and the potential for taking it forward as a clinical candidate for testing in humans. Since GSK716 results in loss of inhibitory activity of α1‐antitrypsin, the effect of the compound was assessed on other closely related serpins. […] Furthermore, there were no off‐target effects in a panel of assays considered predictive of known safety liabilities that precluded further development of GSK716 (Table EV1).

Muscarinic M2 = target: T1, Muscarinic M2 (Homo sapiens, UniProt P08172); experiment: Off‐target panel: Muscarinic M2 (DRX); format: cell-based
T1 sequence (P08172 1-466): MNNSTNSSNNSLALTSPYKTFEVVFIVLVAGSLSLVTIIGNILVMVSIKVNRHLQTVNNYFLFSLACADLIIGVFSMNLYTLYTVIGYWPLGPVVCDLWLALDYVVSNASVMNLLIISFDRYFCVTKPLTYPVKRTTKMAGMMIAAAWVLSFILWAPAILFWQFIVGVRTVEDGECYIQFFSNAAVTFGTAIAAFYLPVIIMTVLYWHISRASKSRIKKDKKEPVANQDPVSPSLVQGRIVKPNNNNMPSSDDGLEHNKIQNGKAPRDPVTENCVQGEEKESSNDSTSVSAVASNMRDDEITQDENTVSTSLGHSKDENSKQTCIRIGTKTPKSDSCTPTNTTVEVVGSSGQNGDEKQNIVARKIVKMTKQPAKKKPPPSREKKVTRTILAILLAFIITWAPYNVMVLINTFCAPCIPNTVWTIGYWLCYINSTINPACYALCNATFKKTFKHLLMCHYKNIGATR
Method: as §1

Cannabinoid CB2 = Cannabinoid CB2 (Homo sapiens, UniProt P34972); experiment: Off‐target panel: Cannabinoid CB2; format: cell-based
Method: as §1

Sequence of Z α1‐antitrypsin (P01009 25-418 E366K): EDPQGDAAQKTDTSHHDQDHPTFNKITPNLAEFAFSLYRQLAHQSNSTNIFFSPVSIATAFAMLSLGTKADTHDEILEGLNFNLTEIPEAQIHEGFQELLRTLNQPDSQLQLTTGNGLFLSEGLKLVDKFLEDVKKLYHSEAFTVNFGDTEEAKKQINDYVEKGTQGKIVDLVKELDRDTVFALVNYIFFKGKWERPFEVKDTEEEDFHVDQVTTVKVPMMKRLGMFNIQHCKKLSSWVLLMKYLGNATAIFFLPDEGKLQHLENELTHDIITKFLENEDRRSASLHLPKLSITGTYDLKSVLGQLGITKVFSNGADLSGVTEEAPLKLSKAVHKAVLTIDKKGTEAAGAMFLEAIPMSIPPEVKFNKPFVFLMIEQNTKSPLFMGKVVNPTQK
Sequence of Adrenergic α1B (P35368 whole entry): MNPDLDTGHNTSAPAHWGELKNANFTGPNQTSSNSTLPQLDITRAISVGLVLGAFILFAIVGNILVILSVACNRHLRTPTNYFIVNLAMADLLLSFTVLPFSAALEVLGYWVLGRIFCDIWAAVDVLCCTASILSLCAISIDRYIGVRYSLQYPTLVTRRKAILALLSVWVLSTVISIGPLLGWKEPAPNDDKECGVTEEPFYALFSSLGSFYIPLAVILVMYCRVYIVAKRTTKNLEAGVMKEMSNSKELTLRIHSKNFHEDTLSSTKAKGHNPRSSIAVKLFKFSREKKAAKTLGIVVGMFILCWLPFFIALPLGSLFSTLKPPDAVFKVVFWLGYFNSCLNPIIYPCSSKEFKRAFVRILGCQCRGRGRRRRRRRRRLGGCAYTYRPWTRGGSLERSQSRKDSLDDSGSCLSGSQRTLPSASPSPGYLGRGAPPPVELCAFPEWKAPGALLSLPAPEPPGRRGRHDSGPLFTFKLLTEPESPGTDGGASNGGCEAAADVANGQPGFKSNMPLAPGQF
Sequence of Cannabinoid CB2 (P34972 whole entry): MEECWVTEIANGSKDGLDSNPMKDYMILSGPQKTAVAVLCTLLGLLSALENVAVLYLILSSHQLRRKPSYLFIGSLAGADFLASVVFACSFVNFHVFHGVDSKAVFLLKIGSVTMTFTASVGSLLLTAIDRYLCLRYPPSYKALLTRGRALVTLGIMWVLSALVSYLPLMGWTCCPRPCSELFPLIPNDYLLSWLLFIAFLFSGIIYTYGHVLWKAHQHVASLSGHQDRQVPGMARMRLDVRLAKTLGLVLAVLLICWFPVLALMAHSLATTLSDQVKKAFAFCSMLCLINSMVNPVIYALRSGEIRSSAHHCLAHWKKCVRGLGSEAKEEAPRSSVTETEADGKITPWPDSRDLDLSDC

CCC[C@@H](NC(=O)c1cccc2c1CC(=O)N2)[C@@H](O)c1cccc(F)c1C [GSK716]
IC50 (Z α1‐antitrypsin; 5 nM Z α1‐antitrypsin, 37°C, 72 h, read-out: pIC50, blocking polymerisation in the TR‐FRET immunoassay (converted)): 0.00501 µM
increase in potency over GSK425 (Z α1‐antitrypsin; TR‐FRET polymerisation immunoassay): ~ 100 fold
IC50 (Adrenergic α1B): > 25.1 µM
EC50 (Muscarinic M2): 5.01 µM
IC50 (Muscarinic M2): > 50.1 µM
EC50 (Cannabinoid CB2): > 100 µM
